Six molecules from the NIST ThermoML archive (doi:10.1021/acs.jced.6b00460) can be followed below.

The speed of sound is how fast a sound wave travels through the sample. For orientation: mass density means the mass of a sample divided by its volume.

For this data set the following is noted: 101.33 kPa, Liquid; for speed of sound: Sing-around technique in a fixed-path interferometer; for mass density: Vibrating tube method.

Structures are written as SMILES. Numbers after ± are expanded uncertainties.

Take `CCCCCC[n+]1ccc(C)cc1.[Br-]` [1-hexyl-4-methylpyridinium bromide]: the speed of sound reads like this: (308.15 K) 1589.8 ± 2.7 m/s; (318.15 K) 1558.7 ± 2.7 m/s. The mass density runs as follows: (308.15 K) 1214.46 ± 2.3 kg/m3; (318.15 K) 1207.88 ± 2.3 kg/m3.

Take `CCCCCC[n+]1ccccc1.[Br-]` [1-hexylpyridinium bromide]: the speed of sound runs as follows: (308.15 K) 1592.5 ± 2.7 m/s; (318.15 K) 1557.2 ± 2.7 m/s. The mass density is recorded as 1235.72 ± 2.4 kg/m3 (308.15 K) and 1229.23 ± 2.3 kg/m3 (318.15 K).

In the case of `CCCCCC[n+]1ccccc1.[Cl-]` [1-hexylpyridinium chloride], for the setting “308.15 K”, the speed of sound turned out to be 1570.7 ± 2.7 m/s and the mass density was 1146.65 ± 2.3 kg/m3. Under “318.15 K”, the speed of sound stood at 1549.2 ± 2.7 m/s and the mass density amounted to 1142.77 ± 2.3 kg/m3.

Regarding `CCCCCCCC[n+]1ccccc1.[Br-]` [1-octylpyridinium bromide], where the note is “308.15 K”, the speed of sound is listed as 1507.1 ± 2.6 m/s and the mass density was determined as 1168.14 ± 2.3 kg/m3. Also, under “318.15 K”, the speed of sound was 1478.3 ± 2.6 m/s and the mass density is given as 1161.81 ± 2.3 kg/m3.

As for `CCCCCCCC[n+]1ccc(C)cc1.[Cl-]` [4-methyl-1-octylpyridinium chloride], the speed of sound is given as 1445.5 ± 2.6 m/s (308.15 K) and 1411.7 ± 2.6 m/s (318.15 K). Besides, the mass density was 1107.79 ± 2.2 kg/m3 (308.15 K) and 1102.01 ± 2.2 kg/m3 (318.15 K).

For the molecule `CCCCCCCC[n+]1ccccc1.[Cl-]` [N-octylpyridinium chloride], for the setting “308.15 K”, the speed of sound was 1482.6 ± 2.6 m/s and the mass density is 1128.78 ± 2.2 kg/m3. Also, under “318.15 K”, the speed of sound is 1448.6 ± 2.6 m/s and the mass density worked out at 1123.06 ± 2.2 kg/m3.
